Test results from US20190343908A1, “Therapeutic Combination for the Treatment of Cancer” (Nerium Biotechnology Inc., priority 2011, published 2019).

Assays:
[1] = test system: HCT-116 (colorectal cancer); assay: Sulforhodamine B viability assay, HCT-116; assay type: cell-based, human; design: key: absorbance (optical density) at 570 nm, second wavelength subtracted; details: for Average SRB: HCT-116
Text: Three different viability assays were chosen to complement each other and yielded results dependent on concentration and cell line: the Methyl Tetrazolium dye assay, the Sulforhodamine B fluorescent dye assay, and the Crystal Violet dye assay.
The Sulforhodamine B and Crystal Violet assays provide information about protein and were used to complement the Methyl-Tetrazolium dye assay. […] It is used for the quantification of cellular proteins of cultured cells. The assay using Crystal Violet, a dye that binds electrostatically to proteins and stains DNA, provides a reliable, simple assay for measuring viability of cells.
(§1) The Methyl Tetrazolium, Sulforhodamine B, and Crystal Violet assays were used to assess cell viabilities. The incubation times were 24 hours, 48 hours, and 72 hours. The Nerium oleander extract Anvirzel™ (a hot water extract of oleander obtained from Salud Integral, Honduras) was tested in concentrations ranging from 0.01 ng/mL to 10 ng/mL.
(§2) Cells were detached by trypsinization (Trypsin-0.25% EDTA, Invitrogen, 25200-072) during the logarithmic phase of culture growth and plated in 96-well plates (18.000 cells/well) (Corning, Costar 359) in a final volume of 200 μl of medium per well. […] The absorbance was measured after 24 hours, 48 hours, and 72 hours of incubation.
For the Sulforhodamine B assay, 96-well plates were fixed by 10% trichloroacetic acid (Fluka, 91228) and were incubated at 4° C. for 1 hour. Afterwards, plates were rinsed with water and cells were stained with 0.4% Sulforhodamine B (Sigma, 341738), dissolved in 1% acetic acid (Carlo Ebra, 401422) for 15 minutes at room temperature (RT). The unbound stain was washed twice with 1% acetic acid. Finally, 10 mM Tris Buffer pH 10.5 (Sigma, T6791) was added to dissolve the dye.
(§3) The optical density of each plate was measured on a μQuant spectrophotometer and the data were analyzed with Gen5 software (μQuant Biomolecular Spectrophotometer MQX200 and Gen5™ Microplate Data Collection & Analysis software, BioTek® Instruments. Inc, April 2008). Absorbance was measured at 570 nm for all assays and a second wavelength was measured in order to subtract noise. For the Methyl-Tetrazolium assay this second wavelength was 630 nm and for the Sulforhodamine B and Crystal Violet assays it was 690 nm.

[2] = test system: LNCaP prostate cancer cell line; assay: Methyl-Tetrazolium viability assay, LNCaP; assay type: cell-based, human; details: for ABSORBANCE: LNCaP, 0.1 μg/mL cisplatin
Text: The Methyl-Tetrazolium dye assay measures the activity of enzymes in mitochondria. The dye precursor is taken up by cells, where it undergoes reduction to the purple formazan. It measures only the mitochondrial activity and, thus, it is not always a reliable indication of whether the cells themselves are alive or dead, since even a recently dead cell has […] enzyme activity in mitochondria. Intracellular glucose concentration, pH, and time before assay all affect the measurements.
as §1, §2
For the Methyl-Tetrazolium assay, the dye (Sigma, M2128; 5 mg/mL, diluted in phosphate-buffered saline) was added to each well and plates were incubated for 3 hours at 37° C. After the end of the incubation period, the medium was discarded and the cells were rinsed with phosphate-buffered saline. Finally, the formazan crystals were dissolved in dimethylsulphoxide (Sigma, D4540).
as §3

For N.N.[Cl][Pt][Cl] [cisplatin], the “SRB Average” value ([1]; HCT-116, Run 3, 24 h, 0.1 μg/ml CDDP) was 2.01, the “SRB Average” value ([1]; HCT-116, Run 3, 24 h, 1 μg/ml CDDP) was 2.129 and the “SRB Average” value ([1]; HCT-116, Run 3, 24 h, 10 μg/ml CDDP) was 2.05. For the same molecule, the “SRB Average” value ([1]; HCT-116, Run 3, 24 h, 100 μg/ml CDDP) was 2.084, the “SRB Average” value ([1]; HCT-116, Run 3, 48 h, 0.1 μg/ml CDDP) was 1.933 and the “SRB Average” value ([1]; HCT-116, Run 3, 48 h, 1 μg/ml CDDP) was 1.394. For the same molecule, the “SRB Average” value ([1]; HCT-116, Run 3, 48 h, 10 μg/ml CDDP) was 1.353, the “SRB Average” value ([1]; HCT-116, Run 3, 48 h, 100 μg/ml CDDP) was 1.136 and the “SRB Average” value ([1]; HCT-116, Run 3, 72 h, 0.1 μg/ml CDDP) was 2.357. The “SRB Average” value ([1]; HCT-116, Run 3, 72 h, 1 μg/ml CDDP) was 1.78, the “SRB Average” value ([1]; HCT-116, Run 3, 72 h, 10 μg/ml CDDP) was 1.876 and the “SRB Average” value ([1]; HCT-116, Run 3, 72 h, 100 μg/ml CDDP) was 1.404. The “Average SRB” value ([1]; Run 1, 24 h, 0.1 μg/ml CDDP) was 1.56, the “Average SRB” value ([1]; Run 1, 24 h, 1 μg/ml CDDP) was 1.606 and the “Average SRB” value ([1]; Run 1, 24 h, 10 μg/ml CDDP) was 1.527. The “Average SRB” value ([1]; Run 1, 24 h, 100 μg/ml CDDP) was 1.736, the “Average SRB” value ([1]; Run 1, 48 h, 0.1 μg/ml CDDP) was 2.278 and the “Average SRB” value ([1]; Run 1, 48 h, 1 μg/ml CDDP) was 2.16. For the same molecule, the “Average SRB” value ([1]; Run 1, 48 h, 10 μg/ml CDDP) was 2.055, the “Average SRB” value ([1]; Run 1, 48 h, 100 μg/ml CDDP) was 1.169 and the “Average SRB” value ([1]; Run 1, 72 h, 0.1 μg/ml CDDP) was 2.449. The “Average SRB” value ([1]; Run 1, 72 h, 1 μg/ml CDDP) was 1.569, the “Average SRB” value ([1]; Run 1, 72 h, 10 μg/ml CDDP) was 1.67 and the “Average SRB” value ([1]; Run 1, 72 h, 100 μg/ml CDDP) was 1.616. For the same molecule, the “Average SRB” value ([1]; Run 2, 24 h, 0.1 μg/ml CDDP) was 1.357, the “Average SRB” value ([1]; Run 2, 24 h, 1 μg/ml CDDP) was 1.199 and the “Average SRB” value ([1]; Run 2, 24 h, 10 μg/ml CDDP) was 1.056. The “Average SRB” value ([1]; Run 2, 24 h, 100 μg/ml CDDP) was 1.173, the “Average SRB” value ([1]; Run 2, 48 h, 0.1 μg/ml CDDP) was 2.886 and the “Average SRB” value ([1]; Run 2, 48 h, 1 μg/ml CDDP) was 2.878. For the same molecule, the “Average SRB” value ([1]; Run 2, 48 h, 10 μg/ml CDDP) was 2.746, the “Average SRB” value ([1]; Run 2, 48 h, 100 μg/ml CDDP) was 2.664 and the “Average SRB” value ([1]; Run 2, 72 h, 0.1 μg/ml CDDP) was 2.909. The “Average SRB” value ([1]; Run 2, 72 h, 1 μg/ml CDDP) was 2.703, the “Average SRB” value ([1]; Run 2, 72 h, 10 μg/ml CDDP) was 2.728 and the “Average SRB” value ([1]; Run 2, 72 h, 100 μg/ml CDDP) was 2.514. The “MTT Average” value ([2]; LNCaP Run 3, 24 h, 0.1 μg/ml CDDP) was 0.11, the “MTT Average” value ([2]; LNCaP Run 3, 24 h, 1 μg/ml CDDP) was 0.008 and the “MTT Average” value ([2]; LNCaP Run 3, 24 h, 10 μg/ml CDDP) was 0.017. For the same molecule, the “MTT Average” value ([2]; LNCaP Run 3, 24 h, 100 μg/ml CDDP) was 0.006, the “MTT Average” value ([2]; LNCaP Run 3, 48 h, 0.1 μg/ml CDDP) was 0.157 and the “MTT Average” value ([2]; LNCaP Run 3, 48 h, 1 μg/ml CDDP) was 0.011. The “MTT Average” value ([2]; LNCaP Run 3, 48 h, 10 μg/ml CDDP) was 0.009, the “MTT Average” value ([2]; LNCaP Run 3, 48 h, 100 μg/ml CDDP) was 0.009 and the “MTT Average” value ([2]; LNCaP Run 3, 72 h, 0.1 μg/ml CDDP) was 0.171. The “MTT Average” value ([2]; LNCaP Run 3, 72 h, 1 μg/ml CDDP) was 0.01, the “MTT Average” value ([2]; LNCaP Run 3, 72 h, 10 μg/ml CDDP) was 0.009 and the “MTT Average” value ([2]; LNCaP Run 3, 72 h, 100 μg/ml CDDP) was 0.008. The ABSORBANCE ([2]; 48 h) was 0.161, the ABSORBANCE ([2]; 72 h) was 0.17 and the “Average MTT 24 h” value ([2]; Run 1, 0.1 μg/ml CDDP) was 0.061. The “Average MTT 48 h” value ([2]; Run 1, 0.1 μg/ml CDDP) was 0.116, the “Average MTT 24 h” value ([2]; Run 1, 1 μg/ml CDDP) was 0.012 and the “Average MTT 48 h” value ([2]; Run 1, 1 μg/ml CDDP) was 0.015. The “Average MTT 72 h” value ([2]; Run 1, 1 μg/ml CDDP) was 0.016, the “Average MTT 24 h” value ([2]; Run 1, 10 μg/ml CDDP) was 0.02 and the “Average MTT 48 h” value ([2]; Run 1, 10 μg/ml CDDP) was 0.011. The “Average MTT 72 h” value ([2]; Run 1, 10 μg/ml CDDP) was 0.01, the “Average MTT 24 h” value ([2]; Run 1, 100 μg/ml CDDP) was 0.011 and the “Average MTT 48 h” value ([2]; Run 1, 100 μg/ml CDDP) was 0.017. The “Average MTT 72 h” value ([2]; Run 1, 100 μg/ml CDDP) was 0.01, the “Average MTT 24 h” value ([2]; Run 2, 0.1 μg/ml CDDP) was 0.136 and the “Average MTT 48 h” value ([2]; Run 2, 0.1 μg/ml CDDP) was 0.161. The “Average MTT 72 h” value ([2]; Run 2, 0.1 μg/ml CDDP) was 0.17, the “Average MTT 24 h” value ([2]; Run 2, 1 μg/ml CDDP) was 0.01 and the “Average MTT 48 h” value ([2]; Run 2, 1 μg/ml CDDP) was 0.016. For the same molecule, the “Average MTT 72 h” value ([2]; Run 2, 1 μg/ml CDDP) was 0.026, the “Average MTT 24 h” value ([2]; Run 2, 10 μg/ml CDDP) was 0.014 and the “Average MTT 48 h” value ([2]; Run 2, 10 μg/ml CDDP) was 0.015. The “Average MTT 72 h” value ([2]; Run 2, 10 μg/ml CDDP) was 0.012, the “Average MTT 24 h” value ([2]; Run 2, 100 μg/ml CDDP) was 0.017 and the “Average MTT 48 h” value ([2]; Run 2, 100 μg/ml CDDP) was 0.015. For the same molecule, the “Average MTT 72 h” value ([2]; Run 2, 100 μg/ml CDDP) was 0.012.
